# Data taken from patent publication US7429482B2, “Screening tools for discovery of novel anabolic agents” (United States of America as represented by the Department …, priority 2005, dated 2008).
# Experiments:
# [1] = test system: human IGF-1 promoter; assay: Human IGF-1 promoter luciferase reporter assay in HepG2 cells; type: cell-based
# Excerpt: pREP4.hAR, expressing full length human AR, and pCMV.Sport.β-Gal, expressing β-galactosidase under a CMV promoter, were as described (Zhao et al., Steroids 69: 357-366, 2004). pcDNA5.rGR, expressing rat glucocorticoid receptor, was provided by Dr. Diane Robins (University of Michigan). The rARC562G vector expressing rat AR with a C562G mutation in the DBD, which results in a loss of DNA binding. The IGF-1 reporter genes pOLuc.1630, pOLuc1300, pOLuc926, pOLuc 320 were provided by Dr. Peter Rotwein (Oregon Health & Science University). These reporters expressed firefly luciferase under the control of 320 to 1630 bases upstream of the transcriptional start site of the human IGF-1 promoter as described in (Kim et al., Mol Endocrinol 5: 1964-1972, 1991). pEGX 4T-1 hAR2, expressing GST fused to the N-terminus of AR DNA-binding domain, was provided by Robert J. Matusik, Ph.D. (Vanderbuilt University Medical Center). pRL-CMV expressing Renilla luciferase was from Promega (Madison, Wis.).
# HepG2 cells (ATCC, Bethesda, Md.) were maintained in Dulbecco's modified Eagle's medium (DMEM), supplemented with 10% fetal bovine serum (FBS) and antibiotics (penicillin 100 U/ml, streptomycin 100 μg/ml). Cells were seeded at 5×10^4 cells/per well into wells of 24-well plates containing DMEM supplemented with 10% charcoal-dextran stripped FBS (CDS-FBS). The next day, cells were transfected with a total of 300 ng DNA per well using Lipofectamine Plus (Invitrogen) with plasmids as indicated in the figure legends. Three hours after transfection, cells were covered with DMEM supplemented with 10% CDS-FBS and either hormone dissolved in ethanol, or ethanol, as indicated in the figures. […] After overnight incubation, activities of firefly and Renilla luciferase were determined using the Dual Luciferase Assay system (Promega).
# Reporter plasmids expressing firefly luciferase under the control of upstream regions of the IGF-1 promoter were constructed by PCR amplification of segments of interest using primers shown in Table 2, using pOLuc-1630 as a template. The location of each amplified fragment is relative to the transcriptional start site. PCR amplification was conduced using a high fidelity Taq polymerase (Pfx, Invitrogen). PCR products were cloned into pCR2.1-TOPO TA (Invitrogen) and the sequences of the inserts were verified. Inserts were excised with Kpn I and Xho I, and were subcloned into pGL3-Promoter (Promega) at these same sites. PGL3-Promoter expresses firefly luciferase under the control of a minimal promoter.
# [2] = Acute denervation (0-14 days): muscle weights; type: in vivo; conditions: rat
# Procedure: Male Wistar rats weighing 250 gm (Taconic Farms, Germantown, N.Y.) were provided food and water ad libitum and were housed in a temperature and humidity controlled environment providing a 12:12 hour day-night cycle. For surgical procedures, animals were anesthetized with ketamine/xylazine. The left sciatic nerve was exposed by blunt dissection, and a 1 to 2 mm piece of this nerve was excised just below the level of the femoral head. A sham surgery was performed on the right hind limb in which the sciatic nerve was exposed but was not transected. Model 2002 Alzet pumps were implanted subcutaneously on the back. […] A pellet containing 15 mg of testosterone (Innovative Research of America, Sarasota, Fla.) administered as a continuous infusion (5 mg/wk), or a pellet containing placebo, was inserted into a subcutaneous pouch. […] Because testosterone is known to have anabolic actions (Ferrando et al., Am J Physiol Endocrinol Metab 282: E601-E607, 2002; Mauras et al., J Clin Endocrinol Metab 83: 1886-1892, 1998; Urban et al., Am J Physiol 269: E820-E826, 1995), reductions in levels of this hormone could affect muscle mass and confound interpretation of the results. Animals were euthanized 14 days later by inhalation of carbon dioxide. Following removal of blood from the left ventricle for determination of serum testosterone concentration by radioimmunoassay (MP Biomedicals, Costa Mesa, Calif.), soleus, extensor digitorum longus (EDL), gastrocnemius and plantaris muscles were excised and weighed, then were flash frozen on dry ice and stored at −80° C.
# [3] = test system: IGFBP-4; assay: Chronic denervation: IGFBP-4 mRNA in gastrocnemius (qPCR); type: in vivo, rat
# Procedure: (§1) Male Wistar rats weighing 200-250 gm (Taconic Farms, Germantown, N.Y.) were provided food and water ad libitum and were housed in a temperature and humidity controlled environment providing a 12:12 hour day-night cycle. For surgical procedures, animals were anesthetized with ketamine/xylazine. The left sciatic nerve was exposed by blunt dissection, and a 1 to 2 mm piece of this nerve was excised just below the level of the femoral head. A sham surgery was performed on the right hind limb in which the sciatic nerve was exposed but was not transected. Twenty eight days later, animals were anesthetized, and Alzet pumps were implanted subcutaneously on the back. […] Testosterone levels after replacement were approximately 15 nM, a high-normal range for rats of this age. […]
# (§2) Total RNA was extracted from skeletal muscle (20 mg) by homogenization in guanidine thiocyanate using a Polytron followed by extraction of total RNA with phenol-chloroform as described by (Chomczynski and Sacchi, Anal Biochem 162: 156-159, 1987). […] Total RNA was eluted and quantified by absorbance at 260 nm. […] Levels of gene expression in the denervated muscle were expressed as fold induction relative to muscle from the sham-denervated leg of animals administered vehicle. […] Fold-induction was determined using the 2^−ΔΔCt method, using expression of 18S RNA as the normalization control. […]
# [4] = test system: junB; assay: Chronic denervation: junB mRNA in gastrocnemius (qPCR); type: in vivo, rat
# Procedure: as §1, §2
# [5] = HepG2 + AR, increasing doses of testosterone
# [6] = HepG2 + AR, testosterone (FIG. 17)
Structure (SMILES),"activation of the upstream promoter of the human IGF-1 gene ([1]; Hep G2 cells, FIG. 18)","dose at which induction of luciferase expression begins, pGL3-230 (ARE1) ([1]; HepG2 + AR) [nM]","induction of pGL3-32 at the lowest concentration tested ([1]; HepG2 + AR, 0.05 nM testosterone) [fold]","maximal induction and sensitivity, pGL3-13A (ARE2) [1, 5]","plateau of induction, pGL3-32 (both AREs) [1, 5] [fold]","plateau of induction, pGL3-230 (ARE1) [1, 5]","increase in luciferase expression, construct containing ARE2 (pGL3-13A) ([1]; HepG2 + AR, testosterone)","increase in luciferase expression, reporters including ARE1 (pGL3-230, pGL3-22) ([1]; HepG2 + AR, testosterone)","induction of reporter containing both ARE1 and ARE2 (pGL3-32) ([1]; HepG2 + AR, testosterone)","responsiveness of reporter with 100 bases downstream of ARE2 (pGL3-25a) ([1]; HepG2 + AR, testosterone)","activation of reporter p3-13a (ARE2) [1, 6]","activation of reporter p3-32 (both AREs) [1, 6] [fold]","induction of luciferase expression with DBD mutant AR (AR-C562G) ([1]; HepG2, pGL3-22, pGL3-13A, pGL3-32, testosterone 50 nM)","weights of muscles from sham-transected limbs ([2]; nandrolone 1.5 mg/kg/wk 14 days + testosterone replacement, not statistically significant)","weights of muscles from the denervated limb versus vehicle ([2]; nandrolone 1.5 mg/kg/wk, 14 days after sciatic transection)","effect on atrophy ([2]; nandrolone 7.5 or 37.5 mg/kg/week, same protocol)","IGFBP-4 expression ([3]; denervated muscle, any time tested)",IGFBP-4 expression ([3]; sham-denervated muscle),"junB expression ([4]; denervated muscle, 3 to 28 days after starting infusion)",junB expression ([4]; sham-denervated muscle)
C[C@]12CC[C@H]3[C@@H](CCC4=CC(=O)CC[C@@]43C)[C@@H]1CC[C@@H]2O [testosterone],activated,0.25,~10,intermediate,25,approximately 8 fold,more than 20 fold,more than 5 fold,greatest induction,Little androgen responsiveness,approximately 20 fold,~30,virtually abolished,,,,,,,
C[C@]12CC[C@H]3[C@@H](CCC4=CC(=O)CC[C@@H]43)[C@@H]1CC[C@@H]2O [nandrolone],,,,,,,,,,,,,,tended to be increased,not significantly different,No effect,did not significantly alter,did not appreciably alter,tended to reduce,no effect
